# Measured values as given in patent publication US6989362B1, “Methods of treating dopamine dysregulation using agents that regulate phosphorylation/dephosphorylation in dopamine signaling” (The Rockefeller University, priority 1999, dated 2006).
# What was measured:
# D1 receptor = experiment: D1 agonist-induced phosphorylation of PKA substrates in striatal slices; type: cell-based, mouse; conditions: 1 μM, 10 min
# Procedure: Dopamine achieves many of its effects in neurons by activation of the D1 class of dopamine receptors, which are positively coupled to the activation of PKA. […] For this purpose, the state of phosphorylation of GluR1, DARPP-32, ARPP-21, and ARPP-16 was determined using phosphorylation state-specific antibodies. […] No significant difference was observed between wildtype and p35^−/− mice in basal levels of phosphorylation of any of these substrates.
# Cdk5 [1] = experiment: Cdk5 mRNA and protein levels in striatum after chronic cocaine; type: in vivo, rat
# Description: FIGS. 8A-8C show the increased expression of Cdk5 in inducible transgenic mice overexpressing ΔFosB and in rats chronically treated with cocaine. […] The positions of oligonucleotides encoding ΔFosB and Cdk5 are indicated. […] Representative labelings are shown for sections from inducible transgenic mice on (Dox) or off doxycycline (H2O) (left) and rats treated chronically with saline or cocaine (right). Quantitation of signals in the caudatoputaman (CP) and nucleus accumbens (NA) are shown. […] Representative Cdk5 immunoblots of striatal tissue dissected from inducible transgenic mice on or off doxycycline (left) and from rats treated chronically with saline or cocaine (right) are shown with quantitation. Data represent means ±SEM for n=6; *p<0.05 compared to control, Student's t test.
# ΔFosB-inducible transgenic mice were either fed […] doxycycline or denied doxycycline for 12 weeks. Adult male Sprague-Dawley rats initially weighing between 160-240 g were injected with cocaine or vehicle (i.p., 20 mg/kg, […]) at the same time each day for 8 days. All analyses were initiated 12 hr after the final dose. For in situ hybridization studies, [α-^35S]UTP-labeled riboprobes were prepared by in vitro transcription from cDNA clones corresponding to full-length clones of rat Cdk5 [Zheng et al., J. Neurobiol. 35:141-159 (1998)]. Cryostat sections were prepared and hybridized as previously described. After hybridization, the sections were exposed to Biomax MR film (Kodak) for 2-6 days. All autoradiograms were analyzed with a Microcomputer Imaging Device system (M4, Imaging Research, Inc.) as described elsewhere [Le Moine and Bloch, J. Comp. Neurol. 355:418426 (1995)]. Statistical analyses of the data were performed using two-tailed unpaired Student's t test. Striatal tissue was rapidly dissected on ice and homogenized in boiling lysis buffer containing 1% SDS and 50 mM sodium flouride with sonication. Striatal slice preparation and treatment were conducted as previously described [Example 1, Bibb et al., Nature 402:669-671 (1999); Nishi et al., J. Neurosci 17:8147-8155 (1997)]. […]
# Cdk5 [2] = experiment: Cocaine-induced locomotor activity with intra-accumbens infusion of Cdk5 inhibitors; type: in vivo, rat; conditions: rats, intra-accumbens 40 nmol/0.5 μl
# Procedure: Doses of cocaine hydrochloride (15 mg/kg i.p. in sterile 0.9% sodium chloride) were chosen to produce a moderate response to cocaine over successive days. […] Drugs were dissolved in sterile phosphate buffered saline containing 50% DMSO. Intracerebral microinfusions were made bilaterally in volumes of 0.5 μl over a period of 2 min with an additional 2 min allowed to elapse prior to removal of the infusion needles and replacement of the stylettes. […] Drugs were given at the same time each day. Subjects were then placed into the chambers and activity was monitored for 60 min.
# [3] = system: dissociated striatal neurons; experiment: Whole-cell voltage-gated Ca2+ current, patch-clamp of dissociated striatal neurons; type: cell-based, mouse; conditions: 10 μM
# Procedure: The physiological consequence of PKA inhibition by phospho-Thr75 DARPP-32 was also assessed. […] Opin. Neurobiol. 8:330-334 (1998)], were analyzed using patch-clamp recordings of dissociated striatal neurons (FIGS. 3g and 3h). […] This effect was virtually abolished in neurons from DARPP-32 knockout mice (1.6±0.3%, n=5, p<0.01, paired t test).
# mouse striatal slices = experiment: Phosphorylation of PKA substrates in striatal slices treated with roscovitine; conditions: 10 μM, 1 h
# [4] = rats, 20 mg/kg i.p. daily for 8 days, in situ hybridization
compound,measurement,setting,value
Oc1cc2c(c(Cl)c1O)CCNCC2c1ccccc1 (stereo not drawn) [SKF 81297],"phosphorylation of GluR1, DARPP-32, ARPP-21 and ARPP-16 (PKA sites)","D1 receptor; p35−/− mouse striatal slices, versus wildtype",to an even greater extent
same,"phosphorylation of GluR1, DARPP-32, ARPP-21 and ARPP-16 (PKA sites)",D1 receptor; wildtype mouse striatal slices,increased
COC(=O)[C@H]1[C@@H](OC(=O)c2ccccc2)C[C@@H]2CC[C@H]1N2C [cocaine],Cdk5 protein levels in striatal tissue versus control,"Cdk5 [1]; rats exposed chronically, immunoblot",180±20%
same,Cdk5 mRNA levels in caudatoputamen versus saline,Cdk5 [1]; [4],151.8±11.8%
same,Cdk5 mRNA levels in nucleus accumbens versus saline,Cdk5 [1]; [4],150.5±10.0%
Cn1cnc2nc(NCCO)nc(NCc3ccccc3)c21 [iso-olomoucine],locomotor or stereotypic responses to cocaine,Cdk5 [2],failed to enhance
CC[C@H](CO)Nc1nc(NCc2ccccc2)c2ncn(C(C)C)c2n1 [roscovitine],enhancement of whole-cell Ca2+ current,[3]; neurons from DARPP-32 knockout mice,1.6±0.3%
same,enhancement of whole-cell Ca2+ current,[3]; wildtype neurons,9.7% ±1.0%
same,increase in phospho-Ser845 GluR1,mouse striatal slices; striatal slices from DARPP-32−/− mice,not observed
same,Total GluR1 levels,mouse striatal slices; striatal slices,unaffected
same,increase in phosphorylation of ARPP-16 (phospho-Ser88),mouse striatal slices; wildtype mouse striatal slices,2.5±0.2 fold
same,increase in phosphorylation of GluR1 (phospho-Ser845),mouse striatal slices; wildtype mouse striatal slices,3.2±0.5 fold
